Laboratory results from ChEMBL document CHEMBL3817812, “An expeditious four-component domino protocol for the synthesis of novel thiazolo[3,2-a]thiochromeno[4,3-d]pyrimidine derivatives as antibacterial and antibiofilm agents” (Bioorg Med Chem, 2016).
Converted amounts (≈) assume the structure as drawn. The source made the active and inactive calls. The calls are words filed in the database; no cut-off is given here.

Key:
[1] = test system: Staphylococcus aureus; test: Antibacterial activity against Staphylococcus aureus MLS16 MTCC 2940 incubated for 24 hrs by well diffusion method; type: functional; conditions: MLS16 MTCC 2940, 24 h
[2] = test system: Staphylococcus aureus; test: Bactericidal activity against Staphylococcus aureus MTCC 96 incubated for 24 hrs by broth dilution method; type: functional; conditions: MTCC 96, 24 h
[3] = test system: Bacillus subtilis; test: Antibacterial activity against Bacillus subtilis MTCC 121 incubated for 24 hrs by well diffusion method; type: functional; conditions: MTCC 121, 24 h
[4] = test system: Raoultella planticola; test: Antibacterial activity against Klebsiella planticola MTCC 530 incubated for 24 hrs by well diffusion method; type: functional; conditions: MTCC 530, 24 h
[5] = test system: Micrococcus luteus; test: Bactericidal activity against Micrococcus luteus MTCC 2470 incubated for 24 hrs by broth dilution method; type: functional; conditions: MTCC 2470, 24 h
[6] = test system: Bacillus subtilis; test: Bactericidal activity against Bacillus subtilis MTCC 121 incubated for 24 hrs by broth dilution method; type: functional; conditions: MTCC 121, 24 h
[7] = test system: Escherichia coli; test: Antibacterial activity against Escherichia coli MTCC 739 incubated for 24 hrs by well diffusion method; type: functional; conditions: MTCC 739, 24 h
[8] = test system: Micrococcus luteus; test: Antibacterial activity against Micrococcus luteus MTCC 2470 incubated for 24 hrs by well diffusion method; type: functional; conditions: MTCC 2470, 24 h
[9] = test system: Staphylococcus aureus; test: Bactericidal activity against Staphylococcus aureus MLS16 MTCC 2940 incubated for 24 hrs by broth dilution method; type: functional; conditions: MLS16 MTCC 2940, 24 h
[10] = test system: Staphylococcus aureus; test: Antibacterial activity against Staphylococcus aureus MTCC 96 incubated for 24 hrs by well diffusion method; type: functional; conditions: MTCC 96, 24 h
[11] = test system: Pseudomonas aeruginosa; test: Antibacterial activity against Pseudomonas aeruginosa MTCC 2453 incubated for 24 hrs by well diffusion method; type: functional; conditions: MTCC 2453, 24 h
[12] = test system: Staphylococcus aureus; test: Antibiofilm activity against Staphylococcus aureus MLS16 MTCC 2940 incubated for 24 hrs by crystal violet staining-based assay; type: functional, organism-based; conditions: MLS16 MTCC 2940, 24 h
[13] = test system: Micrococcus luteus; test: Antibiofilm activity against Micrococcus luteus MTCC 2470 incubated for 24 hrs by crystal violet staining-based assay; type: functional, organism-based; conditions: MTCC 2470, 24 h
[14] = test system: Staphylococcus aureus; test: Induction of ROS accumulation in Staphylococcus aureus MTCC 96 biofilm at 4 ug/ml after 24 hrs by DCFH-DA staining-based fluorometric assay; type: functional, organism-based
[15] = test system: Staphylococcus aureus; test: Induction of ROS accumulation in Staphylococcus aureus MTCC 96 biofilm at 2 ug/ml after 24 hrs by DCFH-DA staining-based fluorometric assay; type: functional, organism-based
[16] = test system: Staphylococcus aureus; test: Antibiofilm activity against Staphylococcus aureus MTCC 96 incubated for 24 hrs by crystal violet staining-based assay; type: functional, organism-based; conditions: MTCC 96, 24 h
[17] = test system: Bacillus subtilis; test: Antibiofilm activity against Bacillus subtilis MTCC 121 incubated for 24 hrs by crystal violet staining-based assay; type: functional, organism-based; conditions: MTCC 121, 24 h

O=[N+]([O-])c1ccc(C2=CSC3=NC4=C(CSc5ccccc54)C(c4ccc(Cl)cc4)N23)cc1 (configuration not stated)
MIC [1]: > 125 µg/mL
MBC [2]: > 125 µg/mL
MIC [3]: 15.6 µg/mL (≈ 31.8 µM)
MIC [4]: > 125 µg/mL
MBC [5]: 31.2 µg/mL (≈ 63.7 µM)
MBC [6]: 31.2 µg/mL (≈ 63.7 µM)
MIC [7]: > 125 µg/mL
MIC [8]: 15.6 µg/mL (≈ 31.8 µM)
MBC [9]: > 125 µg/mL
MIC [10]: > 125 µg/mL
MIC [11]: > 125 µg/mL

Clc1ccc(C2C3=C(N=C4SC=C(c5ccc(Br)cc5)N42)c2ccccc2SC3)cc1 (configuration not stated)
MIC [1]: > 125 µg/mL
MBC [2]: 62.5 µg/mL (≈ 119 µM)
MIC [3]: 31.2 µg/mL (≈ 59.6 µM)
MIC [4]: > 125 µg/mL
MBC [5]: > 125 µg/mL
MBC [6]: 31.2 µg/mL (≈ 59.6 µM)
MIC [7]: > 125 µg/mL
MIC [8]: > 125 µg/mL
MBC [9]: > 125 µg/mL
MIC [10]: 31.2 µg/mL (≈ 59.6 µM)
MIC [11]: > 125 µg/mL

Cc1ccc(C2C3=C(N=C4SC=C(c5ccc(Br)cc5)N42)c2ccccc2SC3)cc1 (configuration not stated)
MIC [1]: > 125 µg/mL
MIC [3]: > 125 µg/mL
MIC [4]: > 125 µg/mL
MIC [7]: > 125 µg/mL
MIC [8]: > 125 µg/mL
MIC [10]: > 125 µg/mL
MIC [11]: > 125 µg/mL

O=c1oc2ccccc2cc1C1=CSC2=NC3=C(CSc4ccccc43)C(c3cccc([N+](=O)[O-])c3)N12 (configuration not stated)
MIC [1]: > 125 µg/mL
MIC [3]: > 125 µg/mL
MIC [4]: > 125 µg/mL
MIC [7]: > 125 µg/mL
MIC [8]: > 125 µg/mL
MIC [10]: > 125 µg/mL
MIC [11]: > 125 µg/mL

O=C(O)c1cn(C2CC2)c2cc(N3CCNCC3)c(F)cc2c1=O [CIPROFLOXACIN]
MIC [1]: 0.9 µg/mL (≈ 2.72 µM)
IC50 [12]: 0.4 µg/mL (≈ 1.21 µM)
MBC [2]: 1.9 µg/mL (≈ 5.73 µM)
MIC [3]: 0.9 µg/mL (≈ 2.72 µM)
MIC [4]: 0.9 µg/mL (≈ 2.72 µM)
MBC [5]: 1.9 µg/mL (≈ 5.73 µM)
MBC [6]: 0.9 µg/mL (≈ 2.72 µM)
MIC [7]: 0.9 µg/mL (≈ 2.72 µM)
MIC [8]: 0.9 µg/mL (≈ 2.72 µM)
IC50 [13]: 0.4 µg/mL (≈ 1.21 µM)
MBC [9]: 0.9 µg/mL (≈ 2.72 µM)
MIC [10]: 0.9 µg/mL (≈ 2.72 µM)
Activity [14]: Active
MIC [11]: 0.9 µg/mL (≈ 2.72 µM)
Activity [15]: Active

Brc1ccc(C2=CSC3=NC4=C(CSc5ccccc54)C(c4ccccc4)N23)cc1 (configuration not stated)
MIC [1]: > 125 µg/mL
MIC [3]: > 125 µg/mL
MIC [4]: > 125 µg/mL
MIC [7]: > 125 µg/mL
MIC [8]: > 125 µg/mL
MIC [10]: > 125 µg/mL
MIC [11]: > 125 µg/mL

Clc1ccc(C2C3=C(N=C4SC=C(c5ccccc5)N42)c2ccccc2SC3)cc1 (configuration not stated)
MIC [1]: 15.6 µg/mL (≈ 35.1 µM)
MIC [3]: > 125 µg/mL
MIC [4]: > 125 µg/mL
MIC [7]: > 125 µg/mL
MIC [8]: > 125 µg/mL
MIC [10]: > 125 µg/mL
MIC [11]: > 125 µg/mL

O=c1oc2ccccc2cc1C1=CSC2=NC3=C(CSc4ccccc43)C(c3ccccc3)N12 (configuration not stated)
MIC [1]: 31.2 µg/mL (≈ 65.2 µM)
MBC [2]: 31.2 µg/mL (≈ 65.2 µM)
MIC [3]: 31.2 µg/mL (≈ 65.2 µM)
MIC [4]: > 125 µg/mL
MBC [5]: 31.2 µg/mL (≈ 65.2 µM)
MBC [6]: 62.5 µg/mL (≈ 131 µM)
MIC [7]: > 125 µg/mL
MIC [8]: 31.2 µg/mL (≈ 65.2 µM)
MBC [9]: 62.5 µg/mL (≈ 131 µM)
MIC [10]: 15.6 µg/mL (≈ 32.6 µM)
MIC [11]: > 125 µg/mL

Cc1ccc(C2=CSC3=NC4=C(CSc5ccccc54)C(c4ccccc4)N23)cc1 (configuration not stated)
IC50 [16]: 2.1 µg/mL (≈ 4.95 µM)
MIC [1]: 3.9 µg/mL (≈ 9.19 µM)
IC50 [12]: 2.4 µg/mL (≈ 5.65 µM)
MBC [2]: 7.8 µg/mL (≈ 18.4 µM)
MIC [3]: 3.9 µg/mL (≈ 9.19 µM)
MIC [4]: > 125 µg/mL
MBC [5]: 15.6 µg/mL (≈ 36.7 µM)
MBC [6]: 3.9 µg/mL (≈ 9.19 µM)
IC50 [17]: 1.9 µg/mL (≈ 4.47 µM)
MIC [7]: > 125 µg/mL
MIC [8]: 7.8 µg/mL (≈ 18.4 µM)
IC50 [13]: 5.3 µg/mL (≈ 12.5 µM)
MBC [9]: 7.8 µg/mL (≈ 18.4 µM)
MIC [10]: 3.9 µg/mL (≈ 9.19 µM)
Activity [14]: Active
MIC [11]: > 125 µg/mL
Activity [15]: Active

Clc1ccc(C2=CSC3=NC4=C(CSc5ccccc54)C(c4ccccc4)N23)cc1 (configuration not stated)
MIC [1]: > 125 µg/mL
MIC [3]: > 125 µg/mL
MIC [4]: > 125 µg/mL
MIC [7]: > 125 µg/mL
MIC [8]: > 125 µg/mL
MIC [10]: > 125 µg/mL
MIC [11]: > 125 µg/mL

O=c1oc2ccccc2cc1C1=CSC2=NC3=C(CSc4ccccc43)C(c3ccc(Cl)cc3)N12 (configuration not stated)
MIC [1]: > 125 µg/mL
MIC [3]: > 125 µg/mL
MIC [4]: > 125 µg/mL
MIC [7]: > 125 µg/mL
MIC [8]: > 125 µg/mL
MIC [10]: > 125 µg/mL
MIC [11]: > 125 µg/mL

Cc1ccc(C2C3=C(N=C4SC=C(c5cc6ccccc6oc5=O)N42)c2ccccc2SC3)cc1 (configuration not stated)
MIC [1]: 31.2 µg/mL (≈ 63.3 µM)
MBC [2]: 62.5 µg/mL (≈ 127 µM)
MIC [3]: > 125 µg/mL
MIC [4]: > 125 µg/mL
MBC [5]: > 125 µg/mL
MBC [6]: > 125 µg/mL
MIC [7]: > 125 µg/mL
MIC [8]: > 125 µg/mL
MBC [9]: 31.2 µg/mL (≈ 63.3 µM)
MIC [10]: 31.2 µg/mL (≈ 63.3 µM)
MIC [11]: > 125 µg/mL

C1=C(c2ccccc2)N2C(=NC3=C(CSc4ccccc43)C2c2ccccc2)S1 (configuration not stated)
MIC [1]: > 125 µg/mL
MBC [2]: 62.5 µg/mL (≈ 152 µM)
MIC [3]: > 125 µg/mL
MIC [4]: > 125 µg/mL
MBC [5]: > 125 µg/mL
MBC [6]: > 125 µg/mL
MIC [7]: > 125 µg/mL
MIC [8]: > 125 µg/mL
MBC [9]: > 125 µg/mL
MIC [10]: 31.2 µg/mL (≈ 76 µM)
MIC [11]: > 125 µg/mL

O=[N+]([O-])c1cccc(C2C3=C(N=C4SC=C(c5ccc(Cl)cc5)N42)c2ccccc2SC3)c1 (configuration not stated)
MIC [1]: > 125 µg/mL
MIC [3]: > 125 µg/mL
MIC [4]: > 125 µg/mL
MIC [7]: > 125 µg/mL
MIC [8]: > 125 µg/mL
MIC [10]: > 125 µg/mL
MIC [11]: > 125 µg/mL

COc1ccc(C2=CSC3=NC4=C(CSc5ccccc54)C(c4ccc(Cl)cc4)N23)cc1 (configuration not stated)
MIC [1]: 15.6 µg/mL (≈ 32.8 µM)
MBC [2]: 15.6 µg/mL (≈ 32.8 µM)
MIC [3]: 62.5 µg/mL (≈ 132 µM)
MIC [4]: > 125 µg/mL
MBC [5]: > 125 µg/mL
MBC [6]: 62.5 µg/mL (≈ 132 µM)
MIC [7]: > 125 µg/mL
MIC [8]: > 125 µg/mL
MBC [9]: 31.2 µg/mL (≈ 65.7 µM)
MIC [10]: 7.8 µg/mL (≈ 16.4 µM)
MIC [11]: > 125 µg/mL
